Molecular target: T1, hα4 and β1 integrins (Homo sapiens, UniProt P05556+P13612)
T1 construct: expressed in transfected cells; host or cells: CHO cells
Assay: In vitro inhibition of binding between CHO cells expressing hα4 and β1 integrins and Eu3+-hVCAM-1 D1D7-IgG
Conditions: for Ki: CHO cells expressing hα4 and β1 integrins, Eu3+-hVCAM-1 D1D7-IgG ligand, without HSA; for IC50: in the presence of 3% human serum albumin (HSA final concentration 3%)
Description: CHO cells which forcibly expressed hα4 and β1 integrins through transfection thereof, were inoculated into a Costar 3599 plate (3×10^4 cells/100 μl/well), and cultured for two days. The cells in the wells were washed two times with buffer A*, and then Eu^3+-hVCAM-1 D1D7-IgG diluted with assay buffer** to 2 nM was added in an amount of 50 μl/well. The substance under test diluted with 26 DMSO-assay buffer (in the co-presence or absence of 6% human serum albumin) was added in an amount of 50 μl/well (adding separately diluted solution to the wells for performing Scatchard analysis), the contents were stirred for 5 minutes with a plate mixer, and then the plate was left to stand still for one hour at room temperature. The binding inhibitory activity in the presence of human serum albumin (HSA) was examined by diluting the specimen with 26 DMSO-assay buffer containing 6% HSA (SIGMA Corp., c/n A-1653), and adding the resultant (HSA final concentration 3%). After 30 to 60 minutes of the addition of specimen, the plate contents were washed 4 times with buffer A at 4° C., an enhancing reagent (DELFIA SA) was added in an amount of 100 μl/well, and the plate was shaken for 5 minutes using a plate mixer. Subsequently, the fluorescence intensity was measured with a time-resolved fluorometer (DELFIA Wallac). The IC50 of the substance under test (the concentration for 50% inhibition of the binding between CHO cells and Eu^3+-hVCAM-1 D1D7-IgG) was determined from the binding rate obtained from the calculating expression of [(FT−FNS)−(FI−FNS)]/[(FT−FNS)]×100. Here, FT represents the fluorescence intensity of a well not containing the substance under test; FNS represents the fluorescence intensity of a well not containing the substance under test and hVCAM-1 D1D7-IgG; and FI represents the fluorescence intensity of a well containing the substance under test. The Kd value which represents the strength of binding, and Bmax (maximum binding amount) were estimated to be in the range of 0.06 to 20 nM according to the Scatchard analysis method. The evaluation results of the Ki value of the substance under test, and of the IC50 value in the presence of 3% HSA are presented in Tables 2 to 7.
The Ki value was calculated according to the above-described expression. ([L] is the ligand concentration)
[* buffer A: 25 mM HEPES (pH 7.5), 150 mM NaCl, 1 mM Ca^2+, 1 mM Mg^2+, 4 mM Mn2+;
** assay buffer: 25 mM HEPES (pH=7.5), 150 mM NaCl, 1 mM Ca^2+, 1 mM Mg^2+, 4 mM Mn^2+, 0.1% BSA, 20 μM DTPA, with/without 6% ALBUMIN, HUMAN SERUM (C/N A-1653, SIGMA)]

T1 sequence (P13612 34-1032): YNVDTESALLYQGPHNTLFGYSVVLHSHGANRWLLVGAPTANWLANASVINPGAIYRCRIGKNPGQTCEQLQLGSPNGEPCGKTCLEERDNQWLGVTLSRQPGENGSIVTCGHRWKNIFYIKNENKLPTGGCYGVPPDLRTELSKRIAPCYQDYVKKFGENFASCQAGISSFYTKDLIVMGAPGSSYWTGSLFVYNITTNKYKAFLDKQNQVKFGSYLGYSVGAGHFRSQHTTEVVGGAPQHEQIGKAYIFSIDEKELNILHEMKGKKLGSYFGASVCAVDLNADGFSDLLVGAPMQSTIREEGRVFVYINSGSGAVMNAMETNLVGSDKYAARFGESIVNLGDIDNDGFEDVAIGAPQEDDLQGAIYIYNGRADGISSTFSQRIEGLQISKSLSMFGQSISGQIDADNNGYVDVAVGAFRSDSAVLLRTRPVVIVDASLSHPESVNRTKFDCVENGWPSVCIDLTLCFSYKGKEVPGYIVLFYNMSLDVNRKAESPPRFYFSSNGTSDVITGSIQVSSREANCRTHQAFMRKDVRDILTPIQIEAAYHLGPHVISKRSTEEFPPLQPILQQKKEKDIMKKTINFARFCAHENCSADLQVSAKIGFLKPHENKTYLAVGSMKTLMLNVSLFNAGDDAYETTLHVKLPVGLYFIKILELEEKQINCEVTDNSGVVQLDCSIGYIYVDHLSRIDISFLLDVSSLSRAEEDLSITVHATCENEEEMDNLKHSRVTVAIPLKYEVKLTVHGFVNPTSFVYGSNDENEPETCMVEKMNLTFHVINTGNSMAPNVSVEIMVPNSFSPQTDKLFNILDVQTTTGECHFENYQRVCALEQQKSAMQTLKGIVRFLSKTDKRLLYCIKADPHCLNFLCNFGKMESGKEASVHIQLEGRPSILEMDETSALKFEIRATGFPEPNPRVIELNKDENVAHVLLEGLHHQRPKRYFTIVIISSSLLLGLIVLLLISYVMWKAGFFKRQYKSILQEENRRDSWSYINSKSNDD
T1 sequence (P05556 21-798): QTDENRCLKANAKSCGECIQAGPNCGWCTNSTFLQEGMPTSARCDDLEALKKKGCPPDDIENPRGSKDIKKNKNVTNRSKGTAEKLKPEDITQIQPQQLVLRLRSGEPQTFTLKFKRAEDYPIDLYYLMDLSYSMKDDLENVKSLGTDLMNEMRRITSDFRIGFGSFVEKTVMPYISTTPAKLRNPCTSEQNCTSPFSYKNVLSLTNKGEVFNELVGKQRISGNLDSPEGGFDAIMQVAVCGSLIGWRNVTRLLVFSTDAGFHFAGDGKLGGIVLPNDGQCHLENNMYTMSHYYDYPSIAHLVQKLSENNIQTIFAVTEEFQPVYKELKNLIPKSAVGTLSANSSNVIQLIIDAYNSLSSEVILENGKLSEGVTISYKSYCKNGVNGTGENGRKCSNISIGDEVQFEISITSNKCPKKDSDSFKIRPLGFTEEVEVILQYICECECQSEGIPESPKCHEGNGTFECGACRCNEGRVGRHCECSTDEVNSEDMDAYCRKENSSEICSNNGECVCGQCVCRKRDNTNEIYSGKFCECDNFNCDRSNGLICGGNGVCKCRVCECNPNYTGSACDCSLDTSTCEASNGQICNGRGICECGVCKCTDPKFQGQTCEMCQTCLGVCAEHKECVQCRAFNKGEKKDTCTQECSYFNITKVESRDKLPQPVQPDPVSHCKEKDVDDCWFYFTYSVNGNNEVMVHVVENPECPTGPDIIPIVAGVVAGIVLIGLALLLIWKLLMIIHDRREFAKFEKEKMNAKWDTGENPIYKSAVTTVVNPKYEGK

Row | SMILES | Ki [nM] | IC50 [nM]
1 | CO[C@H]1CN([C@H]2C[C@@H](CO[C@H]3CC[C@H](C(=O)O)CC3)N(C(=O)Cc3cc(Cl)c(NC(=O)c4cn(C)c5ccccc45)cc3Cl)C2)C[C@H]1OC [Example 56, Trans-4-[1-[[2,5-dichloro-4-[(1-methyl-1H-indol-3-ylcarbonyl)amino]phenyl]acetyl]-(4S)-(cis-3,4-dimethoxypyrrolidin-1-yl)-(2S)-pyrrolidinylmethoxy]cyclohexanecarboxylic acid] | 2.4 | 9.2
2 | CO[C@H]1CN([C@H]2C[C@@H](CO[C@H]3CC[C@H](C(=O)O)CC3)N(C(=O)Cc3cc(Cl)c(NC(=O)c4csc5ccccc45)cc3F)C2)C[C@H]1OC [Example 57, Trans-4-[1-[[4-[(benzo[b]thiophen-3-ylcarbonyl)amino]-5-chloro-2-fluorophenyl]acetyl]-(4S)-(cis-3,4-dimethoxypyrrolidin-1-yl)-(2S)-pyrrolidinylmethoxy]cyclohexanecarboxylic acid] | 1.4 | 6.2
3 | CO[C@H]1CN([C@H]2C[C@@H](CO[C@H]3CC[C@H](C(=O)O)CC3)N(C(=O)Cc3cc(Cl)c(NC(=O)c4coc5ccccc45)cc3F)C2)C[C@H]1OC [Example 59, Trans-4-[1-[[4-[(benzo[b]furan-3-ylcarbonyl)amino]-5-chloro-2-fluorophenyl]acetyl]-(4S)-(cis-3,4-dimethoxypyrrolidin-1-yl)-(2S)-pyrrolidinylmethoxy]cyclohexanecarboxylic acid] | 3 | 8.1
4 | CO[C@@H]1CN([C@H]2C[C@@H](CO[C@H]3CC[C@H](C(=O)O)CC3)N(C(=O)Cc3cc(Cl)c(NC(=O)c4cn(C)c5ccccc45)cc3Cl)C2)C[C@H]1OC [Example 64, Trans-4-[1-[[2,5-dichloro-4-[(1-methyl-1H-indol-3-ylcarbonyl)amino]phenyl]acetyl]-(4S)-[(3R,4R)-dimethoxypyrrolidin-1-yl]-(2S)-pyrrolidinylmethoxy]cyclohexanecarboxylic acid] | 5 | 33
5 | CO[C@@H]1CN([C@H]2C[C@@H](CO[C@H]3CC[C@H](C(=O)O)CC3)N(C(=O)Cc3cc(Cl)c(NC(=O)c4coc5ccccc45)cc3Cl)C2)C[C@H]1OC [Example 65, Trans-4-[1-[[4-[(benzo[b]furan-3-ylcarbonyl)amino]-2,5-dichlorophenyl]acetyl]-(4S)-[(3R,4R)-dimethoxypyrrolidin-1-yl]-(2S)-pyrrolidinylmethoxy]cyclohexanecarboxylic acid] | 2.9 | 35
6 | O=C(Nc1cc(Cl)c(CC(=O)N2C[C@@H](n3ccnc3)C[C@H]2CO[C@H]2CC[C@H](C(=O)O)CC2)cc1Cl)c1csc2ccccc12 [Example 68, Trans-4-[1-[[4-[(benzo[b]thiophen-3-ylcarbonyl)amino]-2,5-dichlorophenyl]acetyl]-(4S)-(imidazol-1-yl)-(2S)-pyrrolidinylmethoxy]cyclohexanecarboxylic acid] | 2.1 | 30
7 | O=C(Nc1cc(F)c(CC(=O)N2C[C@@H](N3CCCS3(=O)=O)C[C@H]2CO[C@H]2CC[C@H](C(=O)O)CC2)cc1Cl)c1coc2ccccc12 [Example 70, Trans-4-[1-[[4-[(benzo[b]furan-3-ylcarbonyl)amino]-5-chloro-2-fluorophenyl]acetyl]-(4S)-(1,1-dioxo-1λ^6-isothiazolidin-2-yl)-(2S)-pyrrolidinylmethoxy]cyclohexanecarboxylic acid] | 18 | 62
8 | O=C(Nc1cc(F)c(CC(=O)N2C[C@@H](N3C[C@@H]4CS(=O)(=O)C[C@@H]4C3)C[C@H]2CO[C@H]2CC[C@H](C(=O)O)CC2)cc1Cl)c1coc2ccccc12 [Example 77, Trans-4-[1-[[4-[(benzo[b]furan-3-ylcarbonyl)amino]-5-chloro-2-fluorophenyl]acetyl]-(4S)-[(3a,6a-cis)-hexahydro-2,2-dioxo-2λ^6-thieno[3,4-c]pyrrol-5-yl]-(2S)-pyrrolidinylmethoxy]cyclohexanecarboxylic acid] | 2 | 4.1
9 | C[C@@H]1CN([C@H]2C[C@@H](CO[C@H]3CC[C@H](C(=O)O)CC3)N(C(=O)Cc3cc(Cl)c(NC(=O)c4csc5ccccc45)cc3F)C2)C[C@H](C)O1 [Example 79, Trans-4-[1-[[4-[(benzo[b]thiophen-3-ylcarbonyl)amino]-5-chloro-2-fluorophenyl]acetyl]-(4S)-(cis-2,6-dimethylmorpholin-4-yl)-(2S)-pyrrolidinylmethoxy]cyclohexanecarboxylic acid] | 0.74 | 4.1

The remaining molecules from weak to strong by Ki, led by results:

Row | Ki [nM] | IC50 [nM] | SMILES
10 | 7.5 | 28 | O=C(Nc1cc(F)c(CC(=O)N2C[C@@H](N3C[C@H]4C[C@H]4C3)C[C@H]2CO[C@H]2CC[C@H](C(=O)O)CC2)cc1Cl)c1csc2ccccc12 [Example 71, Trans-4-[1-[[4-[(benzo[b]thiophen-3-ylcarbonyl)amino]-5-chloro-2-fluorophenyl]acetyl]-(4S)-[3-azabicyclo[3.1.0]hexan-3-yl]-(2S)-pyrrolidinylmethoxy]cyclohexanecarboxylic acid]
11 | 6.1 | 66 | Cn1cc(C(=O)Nc2cc(F)c(CC(=O)N3C[C@@H](N4CCCO4)C[C@H]3CO[C@H]3CC[C@H](C(=O)O)CC3)cc2Cl)c2ccccc21 [Example 69, Trans-4-[1-[[5-chloro-2-fluoro-4-[(1-methyl-1H-indol-3-ylcarbonyl)amino]phenyl]acetyl]-(4S)-(isoxazolidin-2-yl)-(2S)-pyrrolidinylmethoxy]cyclohexanecarboxylic acid]
12 | 3.2 | 10 | CO[C@H]1CN([C@H]2C[C@@H](CO[C@H]3CC[C@H](C(=O)O)CC3)N(C(=O)Cc3ccc(NC(=O)c4nn(C)c5ccccc45)c(Cl)c3)C2)C[C@H]1OC [Example 62, Trans-4-[1-[[4-[(1-methyl-1H-indazol-3-ylcarbonyl)amino]-3-chlorophenyl]acetyl]-(4S)-(cis-3,4-dimethoxypyrrolidin-1-yl)-(2S)-pyrrolidinylmethoxy]cyclohexanecarboxylic acid]
13 | 3 | 12 | C[C@@H]1CN([C@H]2C[C@@H](CO[C@H]3CC[C@H](C(=O)O)CC3)N(C(=O)Cc3cc(Cl)c(NC(=O)c4cn(C)c5ccccc45)cc3F)C2)C[C@H](C)O1 [Example 81, Trans-4-[1-[[5-chloro-2-fluoro-4-[(1-methyl-1H-indol-3-ylcarbonyl)amino]phenyl]acetyl]-(4S)-(cis-2,6-dimethylmorpholin-4-yl)-(2S)-pyrrolidinylmethoxy]cyclohexanecarboxylic acid]
14 | 2.6 | 9.2 | CO[C@H]1CN([C@H]2C[C@@H](CO[C@H]3CC[C@H](C(=O)O)CC3)N(C(=O)Cc3cc(Cl)c(NC(=O)c4cn(C)c5ccccc45)cc3F)C2)C[C@H]1OC [Example 55, Trans-4-[1-[[5-chloro-2-fluoro-4-[(1-methyl-1H-indol-3-ylcarbonyl)amino]phenyl]acetyl]-(4S)-(cis-3,4-dimethoxypyrrolidin-1-yl)-(2S)-pyrrolidinylmethoxy]cyclohexanecarboxylic acid]
15 | 1.2 | 12 | O=C(Nc1cc(F)c(CC(=O)N2C[C@@H](n3ccnc3)C[C@H]2CO[C@H]2CC[C@H](C(=O)O)CC2)cc1Cl)c1csc2ccccc12 [Example 67, Trans-4-[1-[[4-[(benzo[b]thiophen-3-ylcarbonyl)amino]-5-chloro-2-fluorophenyl]acetyl]-(4S)-(imidazol-1-yl)-(2S)-pyrrolidinylmethoxy]cyclohexanecarboxylic acid]
16 | 0.52 | 12 | CC1(C)O[C@H]2CN([C@H]3C[C@@H](CO[C@H]4CC[C@H](C(=O)O)CC4)N(C(=O)Cc4cc(Cl)c(NC(=O)c5csc6ccccc56)cc4Cl)C3)C[C@H]2O1 [Example 75, Trans-4-[1-[[4-[(benzo[b]thiophen-3-ylcarbonyl)amino]-2,5-dichlorophenyl]acetyl]-(4S)-[(3a,6a-cis)-2,2-dimethyltetrahydro[1,3]dioxo[4,5-c]pyrrol-5-yl]-(2S)-pyrrolidinylmethoxy]cyclohexanecarboxylic acid]

Source: US8129366B2, “VLA-4 inhibitory drug” (Daiichi Sankyo Company, Limited, priority 2005, dated 2012)
